Source: US20240368163A1, “COMPOUNDS AND METHODS FOR MODULATING SPLICING” (REMIX THERAPEUTICS INC., priority 2021, published 2024)

What was measured:
Assay type in all cases: cell-based, human
HTT = test: HiBiT protein abundance assay, HTT; conditions: modified K562 cells
Description: (§1) Compounds described herein were used to screen for effects on quantitative protein abundance using a HiBit assay system (Promega). Quantitative protein abundance was determined by measuring the protein levels of HiBit-tagged protein targets expressed in cell culture via luminescence using the Nano-Glo HiBiT Lytic Detection System, which uses a split complementation assay format to reconstitute NanoBiT enzyme to generate a luminescent signal. A protein abundance assay was developed such that endogenous protein targets could be modified with the HiBiT peptide tag and their abundance could be assessed after compound treatment. Briefly, K562 cell lines containing a HiBiT-modification were treated with various compounds described herein (e.g., compounds of Formulas (I), (II), or (III)). After treatment for 24 hours, the protein abundance of a specific target was determined by measuring luminescence.
(§2) Cells were maintained in IMIDM with 10% FBS. Before the assay, cells were diluted with […] growth media (IMIDM+[…] media) and were seeded in a 384-well plate at a density of 10000 cells/well (for each cell line listed in Table 12). Each compound was prepared as a 10-point 3-fold serial dilution in DMSO with the top dose at a final concentration of 10 μM in the well. Unmodified K562 cells were added at the previously specified density with DMSO to serve as an assay baseline and positive control (PC) and DMSO only with the respective modified cell lines was added to the negative control (NC) columns. Final DMSO concentration was kept at or below 0.25%. Treated cell plates were placed in an incubator at 37° C. with 5% CO2 for 24 hours. After 24 hours, 25 μL of Complete HiBit Lytic reagent was added to each well at room temperature (e.g. one plate requiring 10 mL Lytic Buffer, 100 μL LgBiT Protein, 200 μL Lytic Substrate), shaken for 5 minutes at 600 RPM, then left to sit for 10 minutes for signal to stabilize before reading on a Spark Cyto plate reader (Tecan) with a 500 ms measurement time.
(§3) To determine compound effects on protein abundance of each target in Table 12, the percent response for each respective cell line was calculated at each compound concentration as follows:
(§4) For the normalized response at each concentration, a four-parameter logistical regression was fit to the data and the response was interpolated at the 50% value to determine a concentration for protein abundance at 50% (IC50) the untreated control.

Target C = test: HiBiT protein abundance assay, Target C; conditions: Homo sapiens, K562, 24 h, modified K562 cells
Description: • Promega Nano-Glo HiBiT Lytic Detection System (cat #N3030) • Coming 384-well TC-treated microplates (cat #3570) • Synthego Engineered Cells Knock-In Clones
as §2, §3, §4

MYB [1] = test: HiBiT protein abundance assay, MYB; conditions: Homo sapiens, K562, 24 h, modified K562 cells
Description: as §1, §2, §3, §4

MYB [2] = test: Splicing RT-qPCR assay, MYB mRNA canonical junction (CJ) and alternative junction (AJ)
Description: Compounds described herein were used to modulate RNA transcript abundance in cells. The expression of a target mRNA was measured by detecting the formation of an exon-exon junction in the canonical transcript (CJ). A compound mediated exon-inclusion event was detected by observing an increase in formation of a new junction with an alternative exon (AJ). Real-time qPCR assays were used to detect these splicing switches and interrogate the potency of various compounds towards different target genes. A high-throughput real time quantitative PCR (RT-qPCR) assay was developed to measure these two isoforms of the mRNA (CJ and AJ) for exemplary genes, such as HTT, SMN2, and MYB, together with a control housekeeping gene, GAPDH or GUSB or PPIA, used for normalization. Briefly, the A673 or K562 cell line was treated with various compounds described herein (e.g., compounds of Formula (I)). After treatment, the levels of the HTT, MYB, or SMN2 mRNA targets were determined from each sample of cell lysate by cDNA synthesis followed by qPCR.
The A673 cell line was cultured in DMEM with 10% FBS. Cells were diluted with full growth media and plated in a 96-well plate (15,000 cells in 100 ul media per well). The plate was incubated at 37° C. with 5% CO2 for 24 hours to allow cells to adhere. An 11-point 3-fold serial dilution of the compounds was made in DMSO then diluted in media in an intermediate plate. Compounds were transferred from the intermediate plate to the cell plate with the top dose at a final concentration of 10 uM in the well. Final DMSO concentration was kept at or below 0.25%. The cell plate was returned to the incubator at 37° C. with 5% CO2 for an additional 24 hours.
The K562 cell line was cultured in IMDM with 10% FBS. For K562, cells were diluted with full growth media and plated in either a 96-well plate (50,000 cells in 50 uL media per well) or a 384-well plate (8,000-40,000 cells in 45 uL media per well). An 11-point 3-fold serial dilution of the compounds were made in DMSO then diluted in media in an intermediate plate. Compound was transferred from the intermediate plate to the cell plate with the top dose at a final concentration of 10 uM in the well. Final DMSO concentration was kept at or below 0.25%. Final volume was 100 uL for 96-well plate and 50 uL for 384-well plate. The cell plate was then placed in an incubator at 37° C. with 5% CO2 for 24 hours.
The cells were then gently washed with 50 uL-100 uL cold PBS before proceeding to addition of lysis buffer. 30 uL-50 μL of room temperature lysis buffer with DNAse I (and optionally RNAsin) was added to each well. Cells were shaken/mixed thoroughly at room temperature for 5-10 minutes for lysis to take place and then 3 uL-5 μL of room temperature stop solution was added and wells were shaken/mixed again. After 2-5 minutes, the cell lysate plate was transferred to ice for RT-qPCR reaction setup. The lysates could also be frozen at −80° C. for later use.
In some cases, a direct lysis buffer was used. An appropriate volume of 3× lysis buffer (10 mM Tris, 150 mM NaCl, 1.5%-2.5% Igepal and 0.1-1 U/uL RNAsin, pH 7.4) was directly added to either K562 or A673 cells in media and mixed by pipetting 3 times. The plates were then incubated at room temperature with shaking/rocking for 20-50 minutes to allow for lysis to take place. After this time, the cell lysate plate was transferred to ice to set up for the RT-qPCR reactions. The lysates could also be frozen at −80° C. for later use.
To set up 10 uL RT-qPCR reactions, cell lysates were transferred to 384-well qPCR plates containing the master mix according to the table below. The plates were sealed, gently vortexed, and spun down before the run. The volumes were adjusted accordingly in some instances where the reaction was carried in 20 μL. The table below summarizes the components of the RT-qPCR reactions:
The RT-qPCR reaction was performed using a QuantStudio (ThermoFisher) under the following fast cycling conditions. […]

[3] = Homo sapiens, K562, 24 h, Table 13A

| Structure (SMILES) | IC50 (HTT; [3]) [µM] | IC50 (Target C; Table 13A) [µM] | IC50 (MYB [1]; Table 13A) [µM] | further results |
| --- | --- | --- | --- | --- |
| Cc1cc(-c2ccc(-c3ccc(N(C)[C@@H]4C[C@H]5CC[C@@H](C4)N5)nn3)c3[nH]ncc23)cnn1 [Compound 383, (exo)-N-methyl-N-{6-[4-(6-methylpyridazin-4-yl)-1H-indazol-7-yl]pyridazin-3-yl}-8-azabicyclo[3.2.1]octan-3-amine] | 1 to 10 | 1 to 10 | 1 to 10 |  |
| c1nc2c(-c3cn[nH]c3)ccc(-c3cnc(N4CCN[C@H](C5CC5)C4)nn3)c2s1 [Compound 553] |  |  |  | IC50 (MYB [2]; RT-qPCR panel, canonical junction mRNA, compound concentration having 50% response in CJ decrease, read-out: MYB IC50 (decrease in CJ mRNA levels)): 1 to 10 µM; IC50 (HTT; Table 13A, 24 hours): 1 to 10 µM |
| CC1(C)CC(Oc2ccc(-c3ccc(-n4cccn4)c4cn[nH]c34)nn2)CC(C)(C)N1 [Compound 151] | 0.1 to 1 | 0.1 to 1 | 0.1 to 1 |  |
| c1cnn(-c2ccc(-c3ccc(O[C@@H]4C[C@H]5CC[C@@H](C4)N5)nn3)c3[nH]ncc23)c1 [Compound 152] | < 0.1 | < 0.1 | 0.1 to 1 |  |
| C[C@@H]1C[C@H](N(C)c2ccc(-c3ccc(-c4cn[nH]c4)c4cn[nH]c34)nn2)CCN1 [Compound 101] | 1 to 10 | 1 to 10 | 1 to 10 |  |
| CN(c1ccc(-c2ccc(-c3cn(C)nn3)c3cn[nH]c23)nn1)[C@@H]1C[C@H]2CC[C@@H](C1)N2 [Compound 165] | 1 to 10 | 1 to 10 | 1 to 10 |  |
| CN(c1ccc(-c2ccc(-c3cn[nH]c3)c3cc[nH]c23)nn1)[C@@H]1C[C@H]2CC[C@@H](C1)N2 [Compound 112] | 1 to 10 | 1 to 10 | 1 to 10 | IC50 (MYB [2]; Homo sapiens, 24 h, decrease in CJ mRNA, A673 or K562 cells, 24 hours treatment, RT-qPCR, read-out: MYB CJ IC50): 1 to 10 µM; AC50 (MYB [2]; Homo sapiens, 24 h, increase in AJ mRNA, A673 or K562 cells, 24 hours treatment, RT-qPCR): 1 to 10 µM; IC50 (MYB [2]; Homo sapiens, RT-qPCR panel, canonical junction mRNA, compound concentration having 50% response in CJ decrease, read-out: MYB IC50 (decrease in CJ mRNA levels)): 1 to 10 µM |
| C[C@@H]1C[C@H](N(C)c2ccc(-c3ccc(-c4cn[nH]c4)c(=O)[nH]3)nn2)CCN1 [Compound 901] |  |  |  | IC50 (MYB [2]; Homo sapiens, gene panel, CJ qPCR, protocol of Example 142, read-out: MYB IC50 (decrease in CJ mRNA levels)): > 10 µM; IC50 (HTT; Homo sapiens, K562, 24 h, Table 13B): > 10 µM; IC50 (Target C; Table 13B): > 10 µM; IC50 (MYB [1]; Table 13B): > 10 µM |
| C[C@@H]1C[C@@H](N(C)c2ccc(-c3ccc(-n4cccn4)c4cc[nH]c34)nn2)CCN1 [Compound 110] | 1 to 10 | 1 to 10 | 1 to 10 |  |
| c1nc2c(-c3cn[nH]c3)ccc(-c3ccc(N(C4CC4)[C@@H]4C[C@H]5CC[C@@H](C4)N5)nn3)c2s1 [Compound 389, (exo)-N-cyclopropyl-N-{6-[4-(1H-pyrazol-4-yl)-1,3-benzothiazol-7-yl]pyridazin-3-yl}-8-azabicyclo [3.2.1] octan-3-amine] | 0.1 to 1 | < 0.1 | 0.1 to 1 |  |
| c1nc2c(-c3cn[nH]c3)ccc(-c3ccc(N4C[C@H]5CNC[C@H]5C4)nn3)c2s1 [Compound 282] | 1 to 10 | > 10 | 1 to 10 |  |
